The results in this text go back to patent US12371428B2 (Exelixis, Inc., priority 2019, dated 2025).

In general, IC50 refers to the concentration at which inhibition is half-maximal.

In test [1] the target is Met (phospho-Met, HGF-stimulated PC-3 prostate cancer cells) (Homo sapiens (Human), UniProt P08581). The test can be described thus: Met autophosphorylation ELISA in PC-3 cells (Example F). It counts as cell-based. The following applies: cellular activity; Met autophosphorylation ELISA in PC-3 cells; read-out: c-Met IC50. In outline:
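IC50 values derive from a 4-parameter logistic fit of phospho-Met (panTyr) sandwich ELISA signals in PC-3 lysates, scaled between DMSO and reference-inhibitor wells. Cells, starved 3 h in serum-free medium, had 1 h compound exposure (8 doses, 0.3% DMSO) before 10 min stimulation with 100 ng/mL HGF.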
(In an ELISA, binding on a coated surface is turned into a signal by an enzyme label.)

For test [2], the target named is KDR (phospho-KDR, VEGF165-stimulated HUVEC cells) (Homo sapiens (Human), UniProt P35968). The experiment in a line: KDR autophosphorylation ELISA in HUVEC cells (Example G). It is filed as cell-based. Conditions: cellular activity; KDR autophosphorylation ELISA in HUVEC cells. In outline:
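HUVECs were serum-starved 24 h, given compound as an 8-point dilution series (0.3% DMSO final) for 1 h, then stimulated with 100 ng/mL VEGF165 for 5 min. Lysate phospho-KDR was quantified by sandwich ELISA against a phospho-KDR standard, and IC50s came from a 4-parameter logistic fit.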

For test [3], the target named is Human KDR (residues 790-1356) (Homo sapiens (Human), UniProt P35968). The experiment in a line: Human KDR kinase assay, HTRF KinEase (Example B-2). It counts as biochemical. The protocol:
(§1) Kinase activity and compound inhibition were also investigated using the HTRF® KinEase assay (Cisbio Cat #62TKOPEB) per manufacturer's instructions. In short, compounds were delivered in 300 nL volumes at 10 different concentrations in DMSO (3% final) to empty 384-well assay plates (Corning cat #3824). A mixture of enzyme, […] biotynlated peptide substrate, and buffer in 10 μL volume was added. The assay was started upon the addition of ATP (at Km). The 10 μL reaction was incubated at room temperature. The reaction was stopped upon the addition of detection buffer containing streptavidin-XL665 ([…]) and TK antibody-Eu3+([…]). After a 60 min incubation at room temperature, the fluorescence at 665 nm and 620 nm was read on an Envision microplate reader (Perkin Elmer).
(§2) Kinase activity normalized to DMSO (100% activity) and reference compound at […] and (0% activity) was calculated using the fluorescence ratio […]. IC50 values were calculated by nonlinear regression analysis using a 4-parameter logistic curve fit in ActivityBase XE (IDBS).
Example B-2: Human KDR (residues 790-1356; CarnaBio, 0.1 ng/well) was also incubated with enzymatic buffer (Cisbio) supplemented with 5 mM MgCl2, 1 mM MnCl2, and 1 mM DTT. The mixture was added to the pre-plated compounds. The reaction was initiated upon addition of ATP at Km (4.0 μM). The reaction was incubated at room temperature for 40 min and stopped upon the addition of SA-XL665 and TK-antibody both diluted in EDTA-containing kinase detection buffer (Cisbio). The kinase activity was calculated as stated above and the IC50 values were reported.
On the technique in general: TR-FRET usually uses a lanthanide donor and a delayed reading to cut background.

Test [4] has as its target Mer (phospho-Mer, MERTK-transfected 293A cells) (Homo sapiens (Human), UniProt Q12866). The test can be described thus: Mer autophosphorylation ELISA in transient transfected 293A cells (Example H). Conditions: cellular activity; Mer autophosphorylation ELISA in transient transfected 293A cells. It counts as cell-based. In outline: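 293A cells transiently transfected with human MERTK were treated 1 h in serum-free medium with an 8-point compound dilution (0.3% DMSO final). Lysates were assayed by phospho-Mer sandwich ELISA against a phospho-Mer standard; IC50 came from a 4-parameter logistic fit, normalised to DMSO (100%) and reference-inhibitor (0%) controls.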

Test [5] has as its target Human MER (residues 528-999) (Homo sapiens (Human), UniProt Q12866). The test can be described thus: Human Mer kinase assay, HTRF KinEase (Example C-2). It is filed as biochemical. The method, then: as §1, §2
Example C-2: Human MER (residues 528-999; CarnaBio, 1 ng/well) was also incubated with enzymatic buffer (Cisbio) supplemented with 5 mM MgCl2 and 1 mM DTT. The mixture was added to the pre-plated compounds. The reaction was initiated upon addition of ATP at Km (40 μM). The reaction was incubated at room temperature for 60 min and stopped upon the addition of SA-XL665 and TK-antibody both diluted in EDTA-containing kinase detection buffer (Cisbio). The kinase activity was calculated as stated above and the IC50 values were reported.

Where [6] appears, read: protocol of Example B-2 (other compounds).
[7] abbreviates: protocol of Example C-2 (other compounds).

Structures are written as SMILES. Bounds are passed on as bounds.

Sequence of Met (phospho-Met, HGF-stimulated PC-3 prostate cancer cells) (P08581 25-1390): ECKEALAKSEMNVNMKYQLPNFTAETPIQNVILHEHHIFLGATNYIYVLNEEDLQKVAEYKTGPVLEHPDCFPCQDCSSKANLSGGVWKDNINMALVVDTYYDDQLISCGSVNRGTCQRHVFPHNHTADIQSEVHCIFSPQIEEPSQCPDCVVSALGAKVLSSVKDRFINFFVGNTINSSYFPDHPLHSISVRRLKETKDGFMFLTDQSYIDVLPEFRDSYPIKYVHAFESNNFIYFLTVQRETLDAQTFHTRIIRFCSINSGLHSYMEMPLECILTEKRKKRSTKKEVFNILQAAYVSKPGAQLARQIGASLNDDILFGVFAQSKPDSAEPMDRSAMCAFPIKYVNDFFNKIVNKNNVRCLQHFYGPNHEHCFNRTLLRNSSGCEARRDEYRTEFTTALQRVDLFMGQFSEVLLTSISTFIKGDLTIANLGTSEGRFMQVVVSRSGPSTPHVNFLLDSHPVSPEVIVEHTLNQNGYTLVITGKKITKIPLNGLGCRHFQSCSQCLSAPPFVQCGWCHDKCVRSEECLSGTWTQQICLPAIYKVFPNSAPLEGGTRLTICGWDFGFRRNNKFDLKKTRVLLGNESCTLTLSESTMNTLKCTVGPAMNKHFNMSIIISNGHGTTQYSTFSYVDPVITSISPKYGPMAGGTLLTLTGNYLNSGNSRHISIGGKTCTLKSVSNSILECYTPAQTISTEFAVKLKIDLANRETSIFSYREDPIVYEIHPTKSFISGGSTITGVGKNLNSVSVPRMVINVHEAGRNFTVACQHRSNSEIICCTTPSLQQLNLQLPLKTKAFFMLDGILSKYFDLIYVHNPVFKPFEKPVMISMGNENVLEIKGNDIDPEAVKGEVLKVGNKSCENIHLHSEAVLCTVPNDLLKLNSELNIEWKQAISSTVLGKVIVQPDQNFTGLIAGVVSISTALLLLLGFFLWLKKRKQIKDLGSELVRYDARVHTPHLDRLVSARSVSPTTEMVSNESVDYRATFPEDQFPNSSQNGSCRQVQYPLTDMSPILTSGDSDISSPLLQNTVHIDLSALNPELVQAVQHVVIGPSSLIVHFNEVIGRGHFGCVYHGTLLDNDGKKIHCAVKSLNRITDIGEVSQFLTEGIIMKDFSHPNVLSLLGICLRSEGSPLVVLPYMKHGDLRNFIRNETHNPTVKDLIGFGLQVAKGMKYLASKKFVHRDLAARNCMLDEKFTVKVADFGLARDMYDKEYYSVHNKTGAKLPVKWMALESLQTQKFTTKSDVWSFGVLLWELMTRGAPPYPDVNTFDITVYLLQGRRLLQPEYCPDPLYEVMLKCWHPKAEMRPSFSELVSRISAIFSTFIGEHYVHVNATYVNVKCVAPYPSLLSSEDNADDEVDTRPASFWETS
Sequence of Mer (phospho-Mer, MERTK-transfected 293A cells) (Q12866 21-999): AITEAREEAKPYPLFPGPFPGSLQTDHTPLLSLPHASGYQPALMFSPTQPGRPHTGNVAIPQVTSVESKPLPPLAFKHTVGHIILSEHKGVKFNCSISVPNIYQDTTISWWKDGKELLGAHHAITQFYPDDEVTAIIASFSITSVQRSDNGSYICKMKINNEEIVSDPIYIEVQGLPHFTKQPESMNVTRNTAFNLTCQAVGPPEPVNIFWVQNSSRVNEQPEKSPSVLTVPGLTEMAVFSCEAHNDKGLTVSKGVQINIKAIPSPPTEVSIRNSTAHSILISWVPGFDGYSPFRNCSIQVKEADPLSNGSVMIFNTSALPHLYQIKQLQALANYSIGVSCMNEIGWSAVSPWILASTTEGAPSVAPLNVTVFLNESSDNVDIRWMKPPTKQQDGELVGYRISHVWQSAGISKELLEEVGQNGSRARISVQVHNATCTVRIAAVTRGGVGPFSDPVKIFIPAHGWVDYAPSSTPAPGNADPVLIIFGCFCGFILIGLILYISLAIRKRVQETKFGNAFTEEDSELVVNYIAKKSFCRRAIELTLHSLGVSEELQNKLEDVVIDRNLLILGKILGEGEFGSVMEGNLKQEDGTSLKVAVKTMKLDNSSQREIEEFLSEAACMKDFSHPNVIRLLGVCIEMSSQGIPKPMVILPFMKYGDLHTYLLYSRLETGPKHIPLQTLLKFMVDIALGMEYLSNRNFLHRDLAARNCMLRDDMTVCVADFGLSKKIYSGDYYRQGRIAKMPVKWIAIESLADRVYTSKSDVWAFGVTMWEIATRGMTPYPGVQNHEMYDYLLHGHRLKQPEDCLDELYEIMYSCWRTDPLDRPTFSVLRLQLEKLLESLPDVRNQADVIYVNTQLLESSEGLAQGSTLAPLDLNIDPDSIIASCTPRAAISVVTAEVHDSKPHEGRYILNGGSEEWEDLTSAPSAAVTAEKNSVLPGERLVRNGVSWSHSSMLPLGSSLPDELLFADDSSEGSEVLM
Sequence of Human KDR (residues 790-1356) (P35968 790-1356): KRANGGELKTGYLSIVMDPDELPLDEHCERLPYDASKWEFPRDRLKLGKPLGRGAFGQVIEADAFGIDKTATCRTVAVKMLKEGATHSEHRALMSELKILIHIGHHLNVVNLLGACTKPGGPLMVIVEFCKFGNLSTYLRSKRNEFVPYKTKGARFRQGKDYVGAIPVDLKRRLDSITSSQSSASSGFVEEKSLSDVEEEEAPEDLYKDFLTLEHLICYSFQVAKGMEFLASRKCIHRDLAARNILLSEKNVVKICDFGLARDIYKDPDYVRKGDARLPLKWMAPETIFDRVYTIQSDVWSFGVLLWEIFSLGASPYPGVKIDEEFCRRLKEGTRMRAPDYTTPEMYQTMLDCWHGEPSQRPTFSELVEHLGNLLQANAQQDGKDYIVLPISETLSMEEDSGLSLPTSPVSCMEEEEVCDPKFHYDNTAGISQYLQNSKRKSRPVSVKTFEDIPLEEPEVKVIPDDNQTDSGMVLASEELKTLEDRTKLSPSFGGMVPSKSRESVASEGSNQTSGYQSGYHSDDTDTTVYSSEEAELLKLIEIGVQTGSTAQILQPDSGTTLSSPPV
Sequence of Human MER (residues 528-999) (Q12866 528-999): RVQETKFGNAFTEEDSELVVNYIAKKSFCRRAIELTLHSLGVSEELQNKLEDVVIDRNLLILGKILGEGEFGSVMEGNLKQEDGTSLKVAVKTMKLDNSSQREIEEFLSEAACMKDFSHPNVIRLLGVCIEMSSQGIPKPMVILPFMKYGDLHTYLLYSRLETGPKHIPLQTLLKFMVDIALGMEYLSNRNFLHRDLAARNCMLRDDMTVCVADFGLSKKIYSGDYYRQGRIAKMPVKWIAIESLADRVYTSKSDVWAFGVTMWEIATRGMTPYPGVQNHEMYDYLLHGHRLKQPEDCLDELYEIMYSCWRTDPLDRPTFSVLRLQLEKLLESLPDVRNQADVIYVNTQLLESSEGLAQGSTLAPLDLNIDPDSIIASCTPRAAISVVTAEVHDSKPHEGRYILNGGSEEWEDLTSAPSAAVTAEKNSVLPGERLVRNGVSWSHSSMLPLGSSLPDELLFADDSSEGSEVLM
Sequence of KDR (phospho-KDR, VEGF165-stimulated HUVEC cells) (P35968 20-1356): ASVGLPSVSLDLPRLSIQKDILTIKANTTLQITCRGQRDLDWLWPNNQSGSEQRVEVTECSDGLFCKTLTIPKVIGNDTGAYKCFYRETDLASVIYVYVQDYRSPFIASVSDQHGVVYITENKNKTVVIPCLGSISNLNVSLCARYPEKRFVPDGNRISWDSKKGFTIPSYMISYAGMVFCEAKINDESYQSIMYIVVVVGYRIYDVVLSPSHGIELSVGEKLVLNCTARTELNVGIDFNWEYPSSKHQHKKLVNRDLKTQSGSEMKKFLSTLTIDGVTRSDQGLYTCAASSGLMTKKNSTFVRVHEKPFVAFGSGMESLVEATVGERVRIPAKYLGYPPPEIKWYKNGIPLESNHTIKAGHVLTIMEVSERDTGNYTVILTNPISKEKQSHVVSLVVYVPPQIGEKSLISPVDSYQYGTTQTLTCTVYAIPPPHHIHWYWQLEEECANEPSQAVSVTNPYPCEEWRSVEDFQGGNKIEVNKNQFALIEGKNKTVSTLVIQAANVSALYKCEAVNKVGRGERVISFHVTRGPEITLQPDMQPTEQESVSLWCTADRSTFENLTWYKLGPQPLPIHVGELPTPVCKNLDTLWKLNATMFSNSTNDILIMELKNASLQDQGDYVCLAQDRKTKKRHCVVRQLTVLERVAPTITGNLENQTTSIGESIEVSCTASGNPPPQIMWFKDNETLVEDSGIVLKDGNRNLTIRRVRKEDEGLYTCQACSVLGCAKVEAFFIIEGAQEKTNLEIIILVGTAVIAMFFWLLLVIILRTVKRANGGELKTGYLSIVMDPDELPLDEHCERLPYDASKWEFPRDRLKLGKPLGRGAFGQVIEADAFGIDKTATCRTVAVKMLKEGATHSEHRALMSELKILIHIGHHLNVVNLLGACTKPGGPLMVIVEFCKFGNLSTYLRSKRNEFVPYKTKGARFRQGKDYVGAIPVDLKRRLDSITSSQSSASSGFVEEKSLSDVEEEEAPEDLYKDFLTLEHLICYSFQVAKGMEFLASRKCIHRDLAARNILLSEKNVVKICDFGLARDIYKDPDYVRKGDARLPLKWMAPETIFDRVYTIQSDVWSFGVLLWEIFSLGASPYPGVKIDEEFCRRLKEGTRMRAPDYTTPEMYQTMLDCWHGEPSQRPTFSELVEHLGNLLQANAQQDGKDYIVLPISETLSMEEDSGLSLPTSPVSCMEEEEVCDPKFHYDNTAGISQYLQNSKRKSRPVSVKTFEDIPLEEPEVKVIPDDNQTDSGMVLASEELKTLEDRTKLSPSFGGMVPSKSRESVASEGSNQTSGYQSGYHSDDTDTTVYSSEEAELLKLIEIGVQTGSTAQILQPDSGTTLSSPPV

As to `Cc1ccc(C(=O)Nc2ccc(Oc3ccnc4cccnc34)c(F)c2)c(=O)n1-c1ccc(F)cc1` [Compound 302, N-[3-Fluoro-4-(1,5-naphthyridin-4-yloxy)phenyl]-1-(4-fluorophenyl)-6-methyl-2-oxopyridine-3-carboxamide], the IC50 is under 100 nM in test [1]; 100 to 300 nM in test [2]; over 300 nM in test [3] (setting [6]); under 100 nM in test [4]; under 100 nM in test [5] (setting [7]).

As for `Cc1ccn(-c2ccc(F)cc2)c(=O)c1C(=O)Nc1ccc(Oc2ccnc3cccnc23)c(F)c1` [Compound 303, N-[3-Fluoro-4-(1,5-naphthyridin-4-yloxy)phenyl]-1-(4-fluorophenyl)-4-methyl-2-oxopyridine-3-carboxamide], the concentration for half-maximal inhibition (IC50) is under 100 nM in test [1]; over 300 nM in test [2]; over 300 nM in test [3] (setting [6]); under 100 nM in test [4]; 100 to 300 nM in test [5] (setting [7]).

In the case of `O=C(Nc1ccc(Oc2ccnc3cccnc23)c(F)c1)c1cccn(-c2ccc(F)cc2)c1=O` [Compound 304, N-[3-Fluoro-4-(1,5-naphthyridin-4-yloxy)phenyl]-1-(4-fluorophenyl)-2-oxopyridine-3-carboxamide], the 50% inhibitory concentration (IC50) was under 100 nM in test [1]; 100 to 300 nM in test [2]; over 300 nM in test [3] (setting [6]); under 100 nM in test [4]; under 100 nM in test [5] (setting [7]).

Turning to `COc1cc2nccc(Oc3ccc(NC(=O)c4c(C)c(Br)c(C)n(-c5ccc(F)cc5)c4=O)cc3F)c2nc1OC` [Compound 305, 5-Bromo-N-[4-[(6,7-dimethoxy-1,5-naphthyridin-4-yl)oxy]-3-fluorophenyl]-1-(4-fluorophenyl)-4,6-dimethyl-2-oxopyridine-3-carboxamide], the half-maximal inhibitory concentration (IC50) was under 100 nM in test [1]; 100 to 300 nM in test [2]; over 300 nM in test [3] (setting [6]); under 100 nM in test [4]; under 100 nM in test [5] (setting [7]).

Consider `COc1cc2nccc(Oc3ccc(NC(=O)c4c(C)c(C)c(C)n(-c5ccc(F)cc5)c4=O)cc3F)c2nc1OC` [Compound 306, N-[4-[(6,7-Dimethoxy-1,5-naphthyridin-4-yl)oxy]-3-fluorophenyl]-1-(4-fluorophenyl)-4,5,6-trimethyl-2-oxopyridine-3-carboxamide], for which the IC50 was under 100 nM in test [1]; 100 to 300 nM in test [2]; over 300 nM in test [3] (setting [6]); under 100 nM in test [4]; under 100 nM in test [5] (setting [7]).

Consider `COc1cc2nccc(Oc3ccc(NC(=O)c4c(C)c(Cl)c(C)n(-c5ccc(F)cc5)c4=O)cc3)c2nc1OC` [Compound 307, 5-Chloro-N-[4-[(6,7-dimethoxy-1,5-naphthyridin-4-yl)oxy]phenyl]-1-(4-fluorophenyl)-4,6-dimethyl-2-oxopyridine-3-carboxamide], for which the half-inhibitory concentration (IC50) is under 100 nM in test [1]; over 300 nM in test [2]; over 300 nM in test [3] (setting [6]); under 100 nM in test [4]; under 100 nM in test [5] (setting [7]).

Regarding `COc1cc2nccc(Oc3ccc(NC(=O)c4c(C)c(Cl)c(C)n(-c5ccc(F)cc5)c4=O)cc3F)c2nc1OC` [Compound 308, 5-Chloro-N-[4-[(6,7-dimethoxy-1,5-naphthyridin-4-yl)oxy]-3-fluorophenyl]-1-(4-fluorophenyl)-4,6-dimethyl-2-oxopyridine-3-carboxamide], the IC50 in test [1] was under 100 nM; in test [2] it was under 100 nM; in test [3] (setting [6]) it was over 300 nM; in test [4], under 100 nM; in test [5] (setting [7]), under 100 nM.

Take `COc1cnc2c(Oc3ccc(NC(=O)c4c(C)c(Cl)c(C)n(-c5ccc(F)cc5)c4=O)cc3F)ccnc2c1` [Compound 309, 5-Chloro-N-[3-fluoro-4-[(7-methoxy-1,5-naphthyridin-4-yl)oxy]phenyl]-1-(4-fluorophenyl)-4,6-dimethyl-2-oxopyridine-3-carboxamide]: the IC50 in test [1] was under 100 nM; in test [2], over 300 nM; in test [3] (setting [6]), over 300 nM; in test [4], under 100 nM; in test [5] (setting [7]), under 100 nM.

Regarding `COc1cnc2c(Oc3ccc(NC(=O)c4c(C)c(Cl)c(C)n(-c5ccc(F)cc5)c4=O)cc3)ccnc2c1` [Compound 310, 5-Chloro-1-(4-fluorophenyl)-N-[4-[(7-methoxy-1,5-naphthyridin-4-yl)oxy]phenyl]-4,6-dimethyl-2-oxopyridine-3-carboxamide], the half-inhibitory concentration (IC50) is under 100 nM in test [1]; over 300 nM in test [2]; over 300 nM in test [3] (setting [6]); under 100 nM in test [4]; 100 to 300 nM in test [5] (setting [7]).

As for `CCOc1c(C)cn(-c2ccc(F)cc2)c(=O)c1C(=O)Nc1ccc(Oc2ccnc3cc(OC)c(OC)nc23)c(F)c1` [Compound 371, N-[4-[(6,7-dimethoxy-1,5-naphthyridin-4-yl)oxy]-3-fluorophenyl]-4-ethoxy-1-(4-fluorophenyl)-5-methyl-2-oxopyridine-3-carboxamide], the half-maximal inhibitory concentration (IC50) in test [1], in test [2], in test [3] (setting [6]), in test [4] and in test [5] (setting [7]) was under 100 nM throughout.

With `COc1cc2nccc(Oc3ccc(NC(=O)c4c(OC)c(C)cn(-c5ccc(F)cc5)c4=O)cc3F)c2nc1OC` [Compound 372, N-[4-[(6,7-dimethoxy-1,5-naphthyridin-4-yl)oxy]-3-fluorophenyl]-1-(4-fluorophenyl)-4-methoxy-5-methyl-2-oxopyridine-3-carboxamide], the IC50 in test [1], in test [2], in test [3] (setting [6]), in test [4] and in test [5] (setting [7]) was under 100 nM throughout.

`CNC(=O)Cc1cc2c(Oc3ccc(NC(=O)c4cnc(C)c(-c5ccc(F)cc5)c4O)cc3F)ccnc2cc1OC` [Compound 376, N-[3-fluoro-4-[7-methoxy-6-[2-(methylamino)-2-oxoethyl]quinolin-4-yl]oxyphenyl]-5-(4-fluorophenyl)-4-hydroxy-6-methylpyridine-3-carboxamide]: the IC50 in test [1], in test [2], in test [3] (setting [6]), in test [4] and in test [5] (setting [7]) was under 100 nM each time.

In the case of `COc1ccc2nccc(Oc3ccc(NC(=O)c4cnc(C)n(-c5ccc(F)cc5)c4=O)cc3)c2n1` [Compound 385, 1-(4-fluorophenyl)-N-[4-[(6-methoxy-1,5-naphthyridin-4-yl)oxy]phenyl]-2-methyl-6-oxopyrimidine-5-carboxamide], the IC50 in test [1] was under 100 nM; in test [2], over 300 nM; in test [3] (setting [6]), over 300 nM; in test [4], under 100 nM; in test [5] (setting [7]) it was under 100 nM.

As for `COc1cc2nccc(Oc3ccc(NC(=O)c4ccnn(-c5ccc(F)cc5C)c4=O)cc3F)c2nc1OC` [Compound 527, N-[4-[(6,7-dimethoxy-1,5-naphthyridin-4-yl)oxy]-3-fluorophenyl]-2-(4-fluoro-2-methylphenyl)-3-oxopyridazine-4-carboxamide], the IC50 was under 100 nM in test [1]; under 100 nM in test [2]; 100 to 300 nM in test [3] (protocol of Example B-2); under 100 nM in test [4]; under 100 nM in test [5] (protocol of Example C-2).
